≈ marks a conversion by molar mass, not a printed value.

Data set [1] deals with Mycobacterium tuberculosis. The data set can be described thus: microbe, parasite or virus in culture. The conditions noted are these: H37Rv, 672 h.
Description: Antimycobacterial activity against Mycobacterium tuberculosis H37Rv after 28 days by agar dilution method
A short description of data set [2]: Lipophilicity, log P of the compound. The class given is physicochemical. The settings on record: octanol/water.

Regarding `Clc1ccc2c(c1)[C@@H]1OCCC[C@@H]1[C@@H](c1ccc3oc4ccccc4c3c1)N2` (relative stereo), the MIC in data set [1] was determined as 6.25 µg/mL (≈ 16 µM). The compound further came in with a logP in data set [2] of 4.49.

In turn, `COc1ccc2c(c1)[C@@H]1OCCC[C@@H]1[C@H](c1ccc3oc4ccccc4c3c1)N2` (relative stereo) showed an MIC in data set [1] of 12.5 µg/mL (≈ 32.4 µM). The compound also came in with a logP in data set [2] of 3.81.

As to `Brc1ccc2c(c1)[C@@H]1OCCC[C@@H]1[C@@H](c1ccc3oc4ccccc4c3c1)N2` (relative stereo), the MIC in data set [1] was 6.25 µg/mL (≈ 14.4 µM). The same compound yielded a logP in data set [2] of 4.76.

Compound `Cc1ccc2c(c1)[C@@H]1OCCC[C@@H]1[C@@H](c1ccc3c(c1)c1ccccc1n3C)N2` (relative stereo) gave an MIC in data set [1] of 25 µg/mL (≈ 65.4 µM). The compound also yielded a logP in data set [2] of 4.58. The like results for `Cc1ccc2c(c1)[C@@H]1OCCC[C@@H]1[C@H](c1ccc3oc4ccccc4c3c1)N2` were, in that order, 12.5 µg/mL (≈ 33.8 µM) and 4.42. In the same order, the values of `Fc1ccc2c(c1)[C@@H]1OCCC[C@@H]1[C@H](c1ccc3oc4ccccc4c3c1)N2` (relative stereo) are 3.13 µg/mL (≈ 8.38 µM) and 4.09. `CO[C@H]1/C=C/O[C@@]2(C)Oc3c(C)c(O)c4c(O)c(c(/C=N/N5CCN(C)CC5)c(O)c4c3C2=O)NC(=O)/C(C)=C\C=C\[C@H](C)[C@H](O)[C@@H](C)[C@@H](O)[C@@H](C)[C@H](OC(C)=O)[C@@H]1C` [RIFAMPIN] came in with an MIC in data set [1] of 0.2 µg/mL (≈ 0.243 µM).

`Brc1ccc2c(c1)[C@@H]1OCCC[C@@H]1[C@H](c1ccc3oc4ccccc4c3c1)N2` (relative stereo) registered an MIC in data set [1] of 12.5 µg/mL (≈ 28.8 µM). For the same compound, the logP in data set [2] amounted to 4.76. In the same order, the values of `Clc1ccc2c(c1)[C@@H]1OCCC[C@@H]1[C@H](c1ccc3oc4ccccc4c3c1)N2` (relative stereo) are 25 µg/mL (≈ 64.1 µM) and 4.49.

For `CC[C@@H](CO)NCCN[C@@H](CC)CO` [ETHAMBUTOL], the MIC in data set [1] is 3.13 µg/mL (≈ 15.3 µM). As for `Cn1c2ccccc2c2cc([C@@H]3Nc4ccccc4[C@@H]4OCCC[C@H]34)ccc21` (relative stereo), in data set [1], the MIC came to 25 µg/mL (≈ 67.8 µM). The same compound yielded a logP in data set [2] of 4.1.

In data set [1], `Cn1c2ccccc2c2cc([C@H]3Nc4ccc(Cl)cc4[C@@H]4OCCC[C@H]34)ccc21` (relative stereo) displayed an MIC of 6.25 µg/mL (≈ 15.5 µM). In data set [2], the logP was determined as 4.65. In the same order, the values of `Cn1c2ccccc2c2cc([C@@H]3Nc4ccc(F)cc4[C@@H]4OCCC[C@H]34)ccc21` (relative stereo) are 6.25 µg/mL (≈ 16.2 µM) and 4.25.

With `Cc1ccc2c(c1)[C@@H]1OCCC[C@@H]1[C@@H](c1ccc3oc4ccccc4c3c1)N2` (relative stereo), the MIC in data set [1] is 12.5 µg/mL (≈ 33.8 µM). In data set [2], this compound returned a logP of 4.42. With `NNC(=O)c1ccncc1` [ISONIAZID], in data set [1], the MIC turned out to be 0.1 µg/mL (≈ 0.729 µM).

The compound `Cn1c2ccccc2c2cc([C@H]3Nc4ccccc4[C@@H]4OCCC[C@H]34)ccc21` (relative stereo) showed an MIC in data set [1] of 12.5 µg/mL (≈ 33.9 µM). The same compound returned a logP in data set [2] of 4.1.

Regarding `Cn1c2ccccc2c2cc([C@H]3Nc4ccc(Br)cc4[C@@H]4OCCC[C@H]34)ccc21` (relative stereo), in data set [1], the MIC was found to be 6.25 µg/mL (≈ 14 µM). This compound also returned a logP in data set [2] of 4.93. In the same order, the values of `Cc1ccc2c(c1)[C@@H]1OCCC[C@@H]1[C@H](c1ccc3c(c1)c1ccccc1n3C)N2` (relative stereo) are 25 µg/mL (≈ 65.4 µM) and 4.58. The like results for `COc1ccc2c(c1)[C@@H]1OCCC[C@@H]1[C@@H](c1ccc3c(c1)c1ccccc1n3C)N2` (relative stereo) were, in that order, 25 µg/mL (≈ 62.7 µM) and 3.97. Compound `Cn1c2ccccc2c2cc([C@H]3Nc4ccc(F)cc4[C@@H]4OCCC[C@H]34)ccc21` yielded an MIC in data set [1] of 3.13 µg/mL (≈ 8.1 µM). Moreover, the logP in data set [2] came to 4.25.

On to `COc1ccc2c(c1)[C@@H]1OCCC[C@@H]1[C@@H](c1ccc3oc4ccccc4c3c1)N2` (relative stereo), for which, in data set [1], the MIC turned out to be 12.5 µg/mL (≈ 32.4 µM). This compound displayed a lipophilicity (logP) in data set [2] of 3.81. The like results for `Cn1c2ccccc2c2cc([C@@H]3Nc4ccc(Cl)cc4[C@@H]4OCCC[C@H]34)ccc21` (relative stereo) were, in that order, 12.5 µg/mL (≈ 31 µM) and 4.65. The like results for `Fc1ccc2c(c1)[C@@H]1OCCC[C@@H]1[C@@H](c1ccc3oc4ccccc4c3c1)N2` (relative stereo) were, in that order, 3.13 µg/mL (≈ 8.38 µM) and 4.09.

In data set [1], `Cn1c2ccccc2c2cc([C@@H]3Nc4ccc(Br)cc4[C@@H]4OCCC[C@H]34)ccc21` (relative stereo) returned an MIC of 25 µg/mL (≈ 55.9 µM). The compound also had a logP in data set [2] of 4.93. The like results for `c1ccc2c(c1)N[C@@H](c1ccc3oc4ccccc4c3c1)[C@H]1CCCO[C@@H]21` (relative stereo) were, in that order, 25 µg/mL (≈ 70.3 µM) and 3.92. In the same order, the values of `c1ccc2c(c1)N[C@H](c1ccc3oc4ccccc4c3c1)[C@H]1CCCO[C@@H]21` (relative stereo) are 25 µg/mL (≈ 70.3 µM) and 3.92.

The record behind these values is ChEMBL document CHEMBL1828532, “Synthesis and antitubercular evaluation of novel dibenzo[b,d]furan and 9-methyl-9H-carbazole derived hexahydro-2H-pyrano[3,2-c]quinolines via Povarov reaction” (Eur J Med Chem, 2011).
